Measurements published in US20250243180A1, “TARGETED PROTEIN DEGRADATION” (Monte Rosa Therapeutics AG, priority 2023, published 2025).
Like-named read-outs stand apart in the source and are kept apart here.

Key:
CRBN-DDB1 = CRBN-DDB1 (Homo sapiens (Human), UniProt Q96SW2); assay: Compound binding to CRBN by HTRF assay
Procedure: Compound activity was monitored in a Homogenous Time-Resolved Fluorescence (HTRF) assay using 1-[5-({2-[2-(2-{[2-(2,6-dioxopiperidin-3-yl)-1,3-dioxo-2,3-dihydro-1H-isoindol-4-yl]oxy}acetamido)ethoxy]ethyl}carbamoyl)pentyl]-3,3-dimethyl-2-[(1E,3E)-5-[(2E)-1,3,3-trimethyl-5-sulfo-2,3-dihydro-1H-indol-2-ylidene]penta-1,3-dien-1-yl]-3H-indol-1-ium-5-sulfonate as a fluorescent probe. Biochemical assays were conducted in Greiner white 384 well HiBase plates (Cat. No 784075-25) in 20 μL total volume. A one pot detection solution of CRBN-DDB1 (2.5 nM), Anti-His Terbium Cryptate Gold (1×, PerkinElmer Cat. #: 61HI2TLB), and Cy5-Thalidomide (100 nM, Tenova Cat.: T52461) was prepared in 20 mM HEPES, 20 mM NaCl, 0.2 mM TCEP, 0.2 mM EDTA, and 0.005% Tween20 was dispensed to each assay plate. Compounds were stored in dry, ambient temperatures at 10 mM. An 11-point, 1:3 dilution series was prepared from 10 mM stock concentrations in Echo-compatible LDV plates. 10 nL of each compound dilution series was dispensed into assays wells using an Echo 650 (Labcyte Inc. USA). 20 nL of 10 mM Lenalidomide was transferred into the active-control wells for the assay and 20 nL of DMSO was transferred into the neutral-control wells. The assay was then allowed to incubate for 30 min at ambient temperature after transferring compound. Plate measurements were taken on a Pherastar FSX (BMG Labtech, Germany) using the HTRF Red filter (Ex. 337 nm, em1: 620 nm, em2: 665 nm) (Flashes: 50, Integration time: 60-400 us, Z-height: 10 mm, Ratio-multiplier: 10,000). The HTRF signal was then subsequently normalized to the neutral and active controls. Analysis and EC50 values were derived using KNIME analytics (KNIME Zurich) transformation and fitting within Collaborative Drug Discovery (Collaborative Drug Discovery USA). Ki was derived from the geometric mean of the EC50 values using the Cheng-Prustoff transformation.

NEK7 = NEK7 (Homo sapiens (Human), UniProt Q8TDX7+Q96SW2); assay: NEK7 NanoBiT degradation assay in Cal51 NEK7 NanoBiT cell line; format: cell-based; conditions: Cal51 NEK7 NanoBiT cells, 24 hours; for Dmax: CAL-51
Procedure: Cal51 NEK7 NanoBiT cell line was generated via CRISPR Knock-In of the HiBiT tag in NEK7 gene and stable infection with a lentivirus carrying LgBiT protein. The cell line was generated in house. For the experiment, cells were plated in 384-well white flat bottom plates (Corning, 3570BC) at 2500 cells per well using Multiflo (BioTek/Agilent) and in 25 μl volume in DMEM experimental medium: DMEM (DMEM, high glucose, HEPES, no phenol red (ThermoFisher Scientific, 21063029) supplemented with 10% FBS (Corning, 35-075-CV), 1% Penicillin/Streptomycin ((ThermoFisher Scientific, 15140-122), and 1% Endurazine (Nano-Glo Endurazine Live Cell Substrate (Promega, N2571)). Cells were incubated for 16 hours at 37° C., 5% CO2 before compound addition. For dose response determination, 2.5 nL of a compound at different concentrations (stock compound concentration range: 10 mM to 0.5 μM, final concentration range inside cell plate: 1 μM to 0.05 nM) were dispensed into the plate using an Echo® 650 liquid handling device (Backman Coulter/Labcyte). Cells were incubated at 37° C., 5% CO2 for 24 hours and then signal was read on a Pherastar FSX using “LUM plus” optic module with 4095 gain and measurement interval time 0.2 seconds.
Analysis was performed in Genedata Screener (Genedata, Basel, CH). Luminescence response (R) was calculated by the formula: response=100*(S−N)/(P−N) where S is the signal of the well, N and P the mean negative and positive control values respectively of the same plate. The luminescence response was then fitted in Genedata using a 4-parameter antagonist logistic fit (hill slope unconstrained, EC50>0, top/bottom unconstrained).

[1] = NEK7 degradation, read-out: NanoBiT Dmax
[2] = NEK7 degradation, read-out: NanoBiT DC50

Chain of CRBN-DDB1 (Q96SW2 whole entry): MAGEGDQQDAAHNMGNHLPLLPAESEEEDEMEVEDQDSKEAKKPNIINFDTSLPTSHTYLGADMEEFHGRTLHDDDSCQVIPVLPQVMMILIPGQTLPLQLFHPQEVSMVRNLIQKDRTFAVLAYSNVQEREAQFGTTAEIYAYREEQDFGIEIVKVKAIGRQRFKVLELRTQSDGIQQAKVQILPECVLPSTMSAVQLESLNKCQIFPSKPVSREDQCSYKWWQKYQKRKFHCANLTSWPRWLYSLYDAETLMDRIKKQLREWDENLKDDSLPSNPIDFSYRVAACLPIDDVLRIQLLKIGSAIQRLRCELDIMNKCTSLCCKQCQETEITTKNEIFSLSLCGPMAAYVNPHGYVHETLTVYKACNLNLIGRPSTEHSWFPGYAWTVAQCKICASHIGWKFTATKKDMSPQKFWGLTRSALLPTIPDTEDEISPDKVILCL
Chain of CRBN-DDB1 (Q16531 whole entry partner): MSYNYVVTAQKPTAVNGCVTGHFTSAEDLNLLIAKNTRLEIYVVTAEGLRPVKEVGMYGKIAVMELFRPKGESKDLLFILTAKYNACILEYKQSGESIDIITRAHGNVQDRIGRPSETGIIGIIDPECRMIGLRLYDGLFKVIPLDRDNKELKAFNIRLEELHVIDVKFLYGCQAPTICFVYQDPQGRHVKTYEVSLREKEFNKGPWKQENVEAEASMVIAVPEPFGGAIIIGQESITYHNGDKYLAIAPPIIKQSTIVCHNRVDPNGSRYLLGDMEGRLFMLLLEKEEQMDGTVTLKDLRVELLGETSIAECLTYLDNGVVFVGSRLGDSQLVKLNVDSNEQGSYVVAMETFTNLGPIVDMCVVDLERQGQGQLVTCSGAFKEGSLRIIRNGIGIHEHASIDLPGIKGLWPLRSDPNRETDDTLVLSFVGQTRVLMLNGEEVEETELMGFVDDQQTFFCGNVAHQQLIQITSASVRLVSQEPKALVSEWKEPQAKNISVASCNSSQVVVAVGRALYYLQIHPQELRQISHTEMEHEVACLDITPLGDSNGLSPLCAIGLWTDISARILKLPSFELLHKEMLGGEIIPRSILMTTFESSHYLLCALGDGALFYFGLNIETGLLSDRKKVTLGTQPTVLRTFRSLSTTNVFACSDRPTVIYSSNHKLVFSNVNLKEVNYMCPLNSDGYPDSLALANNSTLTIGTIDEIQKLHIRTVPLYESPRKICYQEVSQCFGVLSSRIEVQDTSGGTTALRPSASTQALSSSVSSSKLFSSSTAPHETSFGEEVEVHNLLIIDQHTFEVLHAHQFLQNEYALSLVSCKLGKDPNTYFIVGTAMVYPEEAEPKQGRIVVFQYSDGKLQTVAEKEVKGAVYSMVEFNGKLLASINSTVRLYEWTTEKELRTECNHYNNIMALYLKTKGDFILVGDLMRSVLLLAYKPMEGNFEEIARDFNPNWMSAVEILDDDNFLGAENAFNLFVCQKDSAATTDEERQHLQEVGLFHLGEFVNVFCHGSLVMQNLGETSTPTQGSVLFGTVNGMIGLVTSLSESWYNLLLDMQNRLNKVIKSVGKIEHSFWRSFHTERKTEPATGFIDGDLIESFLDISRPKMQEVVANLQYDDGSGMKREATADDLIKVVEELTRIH
Chain of NEK7 (Q8TDX7 whole entry): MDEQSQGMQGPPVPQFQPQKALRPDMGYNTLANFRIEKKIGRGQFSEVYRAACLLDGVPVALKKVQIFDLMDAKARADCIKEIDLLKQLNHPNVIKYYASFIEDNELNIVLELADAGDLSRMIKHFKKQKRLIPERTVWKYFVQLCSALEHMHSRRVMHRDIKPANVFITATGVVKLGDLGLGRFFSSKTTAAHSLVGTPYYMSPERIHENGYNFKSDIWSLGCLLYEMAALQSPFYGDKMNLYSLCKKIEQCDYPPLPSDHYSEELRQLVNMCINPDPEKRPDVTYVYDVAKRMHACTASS
Chain of NEK7 (Q96SW2 whole entry): as the sequence (Q96SW2 whole entry) above
Chain of NEK7 (Q16531 2-1140 partner): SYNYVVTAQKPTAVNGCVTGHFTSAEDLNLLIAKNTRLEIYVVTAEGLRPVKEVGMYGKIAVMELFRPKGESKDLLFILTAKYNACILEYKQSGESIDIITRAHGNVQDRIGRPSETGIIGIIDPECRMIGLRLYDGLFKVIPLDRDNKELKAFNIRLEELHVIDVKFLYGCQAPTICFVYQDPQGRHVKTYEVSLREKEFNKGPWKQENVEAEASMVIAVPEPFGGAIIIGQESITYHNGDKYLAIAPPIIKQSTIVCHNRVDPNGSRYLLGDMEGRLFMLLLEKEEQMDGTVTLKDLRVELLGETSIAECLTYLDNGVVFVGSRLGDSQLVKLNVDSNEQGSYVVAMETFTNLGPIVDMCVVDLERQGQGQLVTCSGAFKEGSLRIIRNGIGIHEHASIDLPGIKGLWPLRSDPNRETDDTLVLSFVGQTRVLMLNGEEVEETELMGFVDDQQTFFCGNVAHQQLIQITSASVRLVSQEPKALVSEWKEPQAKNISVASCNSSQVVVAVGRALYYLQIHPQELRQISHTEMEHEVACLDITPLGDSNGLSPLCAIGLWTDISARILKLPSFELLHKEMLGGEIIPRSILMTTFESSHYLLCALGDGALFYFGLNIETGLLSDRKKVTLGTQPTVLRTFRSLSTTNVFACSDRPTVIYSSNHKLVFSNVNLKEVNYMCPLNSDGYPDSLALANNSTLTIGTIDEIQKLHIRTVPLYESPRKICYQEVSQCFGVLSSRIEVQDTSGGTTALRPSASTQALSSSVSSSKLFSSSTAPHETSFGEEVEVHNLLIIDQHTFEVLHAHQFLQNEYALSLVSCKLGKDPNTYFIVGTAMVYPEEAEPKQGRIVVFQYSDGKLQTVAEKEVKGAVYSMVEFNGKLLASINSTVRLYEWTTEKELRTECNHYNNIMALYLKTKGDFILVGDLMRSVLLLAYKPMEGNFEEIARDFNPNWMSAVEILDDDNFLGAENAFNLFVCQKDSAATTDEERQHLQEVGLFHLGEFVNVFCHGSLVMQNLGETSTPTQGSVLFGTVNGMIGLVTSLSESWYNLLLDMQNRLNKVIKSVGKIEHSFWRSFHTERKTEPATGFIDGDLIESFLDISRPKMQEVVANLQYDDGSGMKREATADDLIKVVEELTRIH

SMILES | EC50 (CRBN-DDB1) | EC50 (CRBN-DDB1; HTRF class, Cereblon binding) | Dmax (NEK7; read-out: NEK7 NanoBiT Dmax) | Dmax (NEK7; [1]) | DC50 (NEK7; read-out: NEK7 NanoBiT DC50) | DC50 (NEK7; [2])
CC(C)(C(=O)NCc1cc(Cl)c(C2CCC(=O)NC2=O)c(Cl)c1)c1ccc2cnncc2c1 (centres unmarked) [Compound 35, N-(3,5-dichloro-4-(2,6-dioxopiperidin-3-yl)benzyl)-2-methyl-2-(phthalazin-6-yl)propanamide] | 130 nM | 100 to 1000 nM | 77% | > 75% | 19 nM | ≤ 100 nM
CC(C)(C(=O)NCc1cc(Cl)c(C2CCC(=O)NC2=O)c(Cl)c1)c1ccnc(C#N)c1 (centres unmarked) [Compound 92] | 180 nM | 100 to 1000 nM | 71% | 50 to 75% | 65 nM | ≤ 100 nM
CCc1cnc(C(C)(C)C(=O)NCc2cc(Cl)c(C3CCC(=O)NC3=O)c(Cl)c2)cn1 (centres unmarked) [Compound 247] | 120 nM | 100 to 1000 nM | 83% | > 75% | 20 nM | ≤ 100 nM
CC(C)(C(=O)NCc1cc(Cl)c(C2CCC(=O)NC2=O)c(Cl)c1)c1c(F)cncc1F (centres unmarked) [Compound 68] | 90 nM | ≤ 100 nM | 97% | > 75% | 1 nM | ≤ 100 nM
CC(C)(C(=O)NCc1ccc(C2CCC(=O)NC2=O)c(Cl)c1)c1cccc(C#N)c1 (centres unmarked) [Compound 18] | 540 nM | 100 to 1000 nM | 61% | 50 to 75% | 206 nM | 100 to 1000 nM
CC(C)(C(=O)NCc1cc(Cl)c(C2CCC(=O)NC2=O)c(Cl)c1)c1ncc(CC(F)F)cn1 (centres unmarked) [Compound 186] | 90 nM | ≤ 100 nM | 65% | 50 to 75% | 90 nM | ≤ 100 nM
Cc1nccc(C(C)(C)C(=O)NCc2cc(Cl)c(C3CCC(=O)NC3=O)c(Cl)c2)n1 (centres unmarked) [Compound 150] | 150 nM | 100 to 1000 nM | 53% | 50 to 75% | 91 nM | ≤ 100 nM
Cc1cnc(C(C)(C)C(=O)NCc2cc(Cl)c(C3CCC(=O)NC3=O)c(Cl)c2)o1 (centres unmarked) [Compound 163] | 250 nM | 100 to 1000 nM | 80% | > 75% | 18 nM | ≤ 100 nM
COCc1nc(C(C)(C)C(=O)NCc2cc(Cl)c(C3CCC(=O)NC3=O)c(Cl)c2)ncc1C (centres unmarked) [Compound 233, N-(3,5-dichloro-4-(2,6-dioxopiperidin-3-yl)benzyl)-2-(4-(methoxymethyl)-5-methylpyrimidin-2-yl)-2-methylpropanamide] | 190 nM | 100 to 1000 nM | 74% | 50 to 75% | 29 nM | ≤ 100 nM
CC(C)(C(=O)NCc1cc(Cl)c(C2CCC(=O)NC2=O)c(Cl)c1)c1ccn(CC(F)(F)F)c(=O)c1 (centres unmarked) [Compound 23] | 220 nM | 100 to 1000 nM | 88% | > 75% | 22 nM | ≤ 100 nM
CC(C)(C(=O)NCc1cc(Cl)c(C2CCC(=O)NC2=O)c(Cl)c1)c1cnc2ncsc2c1 (centres unmarked) [Compound 52] | 90 nM | ≤ 100 nM | 67% | 50 to 75% | 59 nM | ≤ 100 nM
CC(C)(C(=O)NCc1cc(Cl)c(C2CCC(=O)NC2=O)c(Cl)c1)c1ncc(CC(F)(F)F)cn1 (centres unmarked) [Compound 195] | 220 nM | 100 to 1000 nM | 63% | 50 to 75% | 138 nM | 100 to 1000 nM
CC(C)(C(=O)NCc1cc(F)c(C2CCC(=O)NC2=O)c(Cl)c1)c1ccccc1 (centres unmarked) [Compound 31] | 130 nM | 100 to 1000 nM | 93% | > 75% | 6 nM | ≤ 100 nM
CC(C)(C(=O)NCc1cc(Cl)c(C2CCC(=O)NC2=O)c(Cl)c1)c1cc2cccnc2cn1 (centres unmarked) [Compound 190] | 90 nM | ≤ 100 nM | 90% | > 75% | 6 nM | ≤ 100 nM
CC(C)(O)c1ccc(C(C)(C)C(=O)NCc2cc(Cl)c(C3CCC(=O)NC3=O)c(Cl)c2)nn1 (centres unmarked) [Compound 203] | 200 nM | 100 to 1000 nM | 94% | > 75% | 4 nM | ≤ 100 nM
CC1(C(=O)NCc2ccc(C3CCC(=O)NC3=O)c(Cl)c2)CCc2ccccc2C1 (centres unmarked) [Compound 102] | – | – | 86% | > 75% | 51 nM | ≤ 100 nM
CC(C)(C(=O)NCc1cc(Cl)c(C2CCC(=O)NC2=O)c(Cl)c1)c1cc[nH]n1 (centres unmarked) [Compound 115] | – | – | 76% | > 75% | 43 nM | ≤ 100 nM
CC(C)(C(=O)NCc1cc(Cl)c(C2CCC(=O)NC2=O)c(Cl)c1)c1cncs1 (centres unmarked) [Compound 114] | – | – | 69% | 50 to 75% | 52 nM | ≤ 100 nM
CC(C)(C(=O)NCc1cc(Cl)c(C2CCC(=O)NC2=O)c(Cl)c1)c1ccc(CC#N)nn1 (centres unmarked) [Compound 214] | – | – | 49% | ≤ 50% | 635 nM | 100 to 1000 nM
CC(C)(C(=O)NCc1ccc(C2CCC(=O)NC2=O)c(Cl)c1)c1ccc(Cl)nc1 (centres unmarked) [Compound 105] | – | – | 84% | > 75% | 58 nM | ≤ 100 nM
CC(C)(C(=O)NCc1ccc(C2CCC(=O)NC2=O)c(Cl)c1)c1ccc(Cl)cc1 (centres unmarked) [Compound 101] | – | – | 95% | > 75% | 5 nM | ≤ 100 nM
CC(C)(C(=O)NCc1cc(Cl)c(C2CCC(=O)NC2=O)c(Cl)c1)c1c[nH]cn1 (centres unmarked) [Compound 118] | – | – | 48% | ≤ 50% | 760 nM | 100 to 1000 nM
CC(C)(C(=O)NCc1ccc(C2CCC(=O)NC2=O)c(Cl)c1)c1ccc(OC(F)(F)F)cc1 (centres unmarked) [Compound 100] | – | – | 91% | > 75% | 45 nM | ≤ 100 nM
Cn1ccc(C(C)(C)C(=O)NCc2cc(Cl)c(C3CCC(=O)NC3=O)c(Cl)c2)n1 (centres unmarked) [Compound 117] | – | – | 74% | 50 to 75% | 51 nM | ≤ 100 nM
Cc1cc(C(C)(C)C(=O)NCc2cc(Cl)c(C3CCC(=O)NC3=O)c(Cl)c2)nn1C (centres unmarked) [Compound 116] | – | – | 80% | > 75% | 20 nM | ≤ 100 nM
CC(C)(C(=O)NCc1cc(Cl)c(C2CCC(=O)NC2=O)c(Cl)c1)c1cscn1 (centres unmarked) [Compound 113] | – | – | 61% | 50 to 75% | 151 nM | 100 to 1000 nM
Cc1noc(C)c1C(C)(C)C(=O)NCc1cc(Cl)c(C2CCC(=O)NC2=O)c(Cl)c1 (centres unmarked) [Compound 112] | – | – | 40% | ≤ 50% | 1000 nM | > 1000 nM
Cn1cnnc1C(C)(C)C(=O)NCc1cc(Cl)c(C2CCC(=O)NC2=O)c(Cl)c1 (centres unmarked) [Compound 119] | – | – | 45% | ≤ 50% | 1000 nM | > 1000 nM
CC(C)(C(=O)NCc1ccc(C2CCC(=O)NC2=O)c(Cl)c1)c1cccc(C(F)(F)F)n1 (centres unmarked) [Compound 104] | – | – | 80% | > 75% | 122 nM | 100 to 1000 nM
